In patent US7288557B2, “Triazole derivatives” (Hoffmann-La Roche Inc., priority 2004, dated 2007):

System: HEK293 cells
Assay: Viability assay of HEK293 cells (CellTiter-Glo luminescent cell viability assay)
Assay type: cell-based, human
Conditions: 7 days (168 h) incubation, 3 μM to 0.00015 μM
Method: Viability Assay of HEK293 Cells
A viability assay was performed using the CellTiter-Glo® Luminescent Cell Viability Assay (see Promega Corporation's Technical No. 288, pp. 1-11 [revised February 2004] which is hereby incorporated by reference in its entirety). This assay is a homogeneous method of determining the number of viable cells in culture based on quantitation of the ATP present, an indicator of metabolically active cells. The assay is designed for use with multiwell formats, making it ideal for automated high-throughput screening (HTS), cell proliferation and cytotoxicity assays. The homogeneous assay procedure involves adding a single reagent (containing luciferase, luciferan substrate, and buffer) directly to cells cultured in serum-supplemented medium. Cell washing, removal of medium and multiple pipetting steps are not required. The system detects as few as 15 cells/well in a 384-well format in 10 minutes after adding reagent and mixing.
The homogeneous “add-mix-measure” format results in cell lysis and generation of a luminescent signal proportional to the amount of ATP present. The amount of ATP is directly proportional to the number of cells present in culture. The above-referenced assay generates a “glow-type” luminescent signal, produced by the luciferase reaction, which has a half-life generally greater than five hours, depending on cell type and medium used. The extended half-life eliminates the need to use reagent injectors and provides flexibility for continuous or batch mode processing of multiple plates. […]
HEK293 cells (human embryonic kidney cell line transformed by Adenovirus 5 fragments, ATCC-No. CRL 1573) were cultivated in Dulbecco's Modified Eagle Medium (D-MEM) (1×) liquid (high glucose) (which includes L-Alanyl-L-Glutamine [a stabilized a form of L-Glutamine], 4500 mg/L glucose, and 110 mg/L sodium pyruvate) from Invitrogen Corporation (Invitrogen Catalog Number 31966-021 [now 10569-010] which is hereby incorporated by reference in its entirety), 5% Fetal Calf Serum (FCS, Sigma Cat-No. F4135 [FBS] which is hereby incorporated by reference in its entirety), and 100 Units/ml penicillin/100 μg/ml streptomycin (=Pen/Strep from Invitrogen Cat. No. 15140, which is hereby incorporated by reference in its entirety). […] After 7 days the above viability assay was performed in accordance with the following steps: • Step 1: The cell-plate was equilibrated to room temperature for approximately 30 minutes and than the assay reagent (containing luciferase, luciferan substrate, and buffer) was added. • Step 2: The contents were carefully mixed for 15 minutes to induce cell lysis. • Step 3: After 45 minutes the luminescent signal was measured in Victor 2, (scanning multiwell spectrophotometer, Wallac). […]

| SMILES | IC50 [nM] | IC50 (Homo sapiens) [nM] |
| --- | --- | --- |
| OC(CCCn1ccnn1)c1ccc(OCc2coc(/C=C/c3ccc(OC(F)(F)F)cc3)n2)cc1 (racemic) [Example 2, (rac)-4-[1,2,3]Triazol-1-yl-1-(4-{2-[(E)-2-(4-trifluoro-methoxyphenyl)-vinyl]-oxazol-4-ylmethoxy}-phenyl)-butan-1-ol] | 21.1 |  |
| O=C(CCCn1ccnn1)c1ccc(OCc2coc(/C=C/c3ccc(OC(F)(F)F)cc3)n2)cc1 [Example 1, 4-[1,2,3]Triazol-1-yl-1-(4-{2-[(E)-2-(4-trifluoromethoxy-phenyl)-vinyl]-oxazol-4-ylmethoxy}-phenyl)-butan-1-one] |  | 17.9 |
| O=C(CCCn1ccnn1)c1ccc(OCc2coc(/C=C/c3ccc(SC(F)(F)F)cc3)n2)cc1 [Example 3, 4-[1,2,3]Triazol-1-yl-1-(4-{2-[(E)-2-(4-trifluoromethylsulfanyl-phenyl)-vinyl]-oxazol-4-ylmethoxy}-phenyl)-butan-1-one] |  | 29.9 |
| O=C(CCCn1ccnn1)c1ccc(OCc2coc(C=Cc3ccc(C(F)(F)F)cc3)n2)cc1 [Reference compound, 4-[1,2,3]Triazol-1-yl-1-(4-{2-[2-(4-trifluoromethyl-phenyl)-vinyl]-oxazol-4-ylmethoxy}-phenyl)-butan-1-one, reference compound] |  | 164 |
